Data from paper PMC12523804, “Evaluation of molecular mechanisms of (Z)-3-(pentadec-10′-enyl)-catechol (litreol) and synthetic derivatives as inhibitors of human leukotriene biosynthesis” (Redox Biology, 2025).
Like-named read-outs stand apart in the source and are kept apart here.

Assays:
[1] = molecular target: T1, 12-LO (Homo sapiens, UniProt P18054); test: 12-LO product formation in intact human PMNL; type: cell-based; settings: for IC50: PMNL, 2.5 μM A23187 plus 20 μM AA, read-out: LTC4; for effect on 12-LO activity: at 10 μM
T1 construct: endogenous in cells; host or cells: human PMNL preparations
T1 sequence (P18054 1-663): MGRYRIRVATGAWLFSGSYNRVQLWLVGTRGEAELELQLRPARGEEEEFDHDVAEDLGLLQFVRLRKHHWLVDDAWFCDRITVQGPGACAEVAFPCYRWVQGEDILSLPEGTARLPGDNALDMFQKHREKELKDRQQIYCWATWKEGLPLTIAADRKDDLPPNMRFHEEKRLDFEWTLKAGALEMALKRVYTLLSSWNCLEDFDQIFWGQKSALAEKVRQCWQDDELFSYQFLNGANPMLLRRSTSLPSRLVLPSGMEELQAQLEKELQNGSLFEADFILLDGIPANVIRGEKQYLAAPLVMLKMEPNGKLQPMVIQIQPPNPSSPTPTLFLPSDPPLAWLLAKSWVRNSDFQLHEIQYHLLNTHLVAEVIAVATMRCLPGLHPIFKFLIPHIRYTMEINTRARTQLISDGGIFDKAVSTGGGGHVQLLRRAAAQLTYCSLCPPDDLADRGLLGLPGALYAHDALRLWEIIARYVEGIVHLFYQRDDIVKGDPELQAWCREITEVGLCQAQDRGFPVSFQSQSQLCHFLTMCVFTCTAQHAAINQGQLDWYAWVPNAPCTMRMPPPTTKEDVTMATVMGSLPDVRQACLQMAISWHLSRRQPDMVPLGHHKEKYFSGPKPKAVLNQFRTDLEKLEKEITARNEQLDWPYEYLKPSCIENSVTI

[2] = system: human PMNLs; test: Lactate dehydrogenase release (LDH assay) in PMNL; type: cell-based
Experimental: After treatment of PMNL, supernatants were centrifuged (600g × 5 min, 4 °C), and 100 μL of supernatant were mixed with 200 μL LDH reaction buffer (75 mM Tris/HCl, pH 7.4, 0.3 mM NADH, 1.5 mM Na-pyruvate) in a 96-well plate. The decrease of NADH was measured immediately by absorbance at 340 nm in a kinetic mode (every 7 s for 20 min; Multiskan Spectrum). As a positive control for maximal LDH release, cells treated with 1 % Triton X-100 were included in each experiment, while untreated cells and vehicle (DMSO) served as negative controls.

[3] = molecular target: T2, 5-LO (Homo sapiens, UniProt P09917); test: cell-free 5-LO activity assay with purified human recombinant 5-LO; type: biochemical; design: made in house; settings: for IC50: purified human recombinant 5-LO, 20 μM AA, read-out: Cell-free (IC50 of 5-LO activity); for 5-LO inhibition in the cell free assay: up to 10 μM
T2 sequence (P09917 1-674): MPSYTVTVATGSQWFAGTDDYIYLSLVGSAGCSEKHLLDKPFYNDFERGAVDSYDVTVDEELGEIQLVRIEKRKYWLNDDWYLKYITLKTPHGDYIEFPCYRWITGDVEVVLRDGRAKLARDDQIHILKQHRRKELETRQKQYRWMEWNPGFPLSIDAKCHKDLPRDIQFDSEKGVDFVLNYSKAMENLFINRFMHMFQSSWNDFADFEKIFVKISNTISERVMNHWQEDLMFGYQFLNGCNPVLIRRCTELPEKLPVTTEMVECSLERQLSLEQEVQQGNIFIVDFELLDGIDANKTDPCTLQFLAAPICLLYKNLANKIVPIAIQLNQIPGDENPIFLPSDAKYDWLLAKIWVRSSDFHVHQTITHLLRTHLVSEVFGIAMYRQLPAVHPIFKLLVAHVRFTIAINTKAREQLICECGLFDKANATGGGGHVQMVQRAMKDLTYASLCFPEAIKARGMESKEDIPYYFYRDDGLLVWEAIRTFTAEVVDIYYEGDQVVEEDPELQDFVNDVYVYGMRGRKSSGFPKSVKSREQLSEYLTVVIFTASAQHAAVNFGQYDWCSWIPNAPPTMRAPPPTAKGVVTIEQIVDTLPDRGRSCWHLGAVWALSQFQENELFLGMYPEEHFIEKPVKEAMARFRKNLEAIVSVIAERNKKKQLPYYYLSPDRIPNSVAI
Experimental: 5-LO was expressed in E. coli B121 (DE3) transformed with pT3- 5LO plasmid, and purification of 5-LO was performed as described previously. Briefly, E. coli was lysed in 50 mM tri-ethanolamine/HCl, pH 8.0, 5 mM EDTA, […] soybean trypsin inhibitor, 1 mM phenylmethanesulfonyl fluoride, 1 mM dithiothreitol and 1 mg/mL lysozyme and then sonified (3 × 15 s). The homogenate was then centrifuged at 40,000g for 20 min at 4°C. 5-LO in the supernatant was partially purified by affinity chromatography on an ATP-agarose column (Sigma-Aldrich). Semi-purified 5-LO was diluted in PBS containing EDTA (1 mM) and ATP (1 mM) and immediately used for 5-LO activity assays. Samples were pre-incubated with the test compounds or vehicle (0.1 % DMSO) for 10 min at 4°C. Samples were pre-warmed for 30 s at 37°C, and 2 mM CaCl2 plus the indicated concentrations of AA were added to start 5-LO product formation. The reaction was stopped after 10 min by addition of one volume of ice-cold methanol, and the formed metabolites were analyzed by HPLC. 5- LO products include the all-trans isomers of LTB4 as well as 5-HPETE and its corresponding alcohol 5-HETE.

[4] = molecular target: T2, 5-LO; test: 5-LO product formation in intact human PMNL (neutrophils); type: cell-based; design: endogenous in cells; host or cells: human PMNL from peripheral blood of healthy volunteers; settings: intact human PMNL
Experimental: PMNL and monocytes were isolated from human peripheral blood of adult healthy volunteers, with consent, obtained from the Institute of Transfusion Medi-cine, University Hospital Jena (Germany). PMNL were immediately isolated by dextran sedi-mentation, centrifugation on Nycoprep cushions, and hypotonic lysis of erythrocytes, as described. PMNL viability was analyzed by trypan blue exclusion with a Vi-cell counter (Beckmann Coulter GmbH, Krefeld). HEK-293 cells were grown in DMEM/High Glucose (4.5 g/L) medium supplemented with heat-inactivated fetal calf serum (FCS, 10 %, vv_1), 100 U/mLpenicillin, and 100 µg/mL streptomycin at 37 °C in a 5 % CO2 incubator. HEK-293 cells were stably transfected with 5-LO and FLAP as validated experimental cell-based model for studying the regulation of 5-LO [28]. None of the cell lines used in this study were authenticated.
Freshly isolated human PMNL (5 × 10^6) were resuspended in 1 mL PBS buffer containing 1 mg/mL glucose (PG buffer). […] After 10 min at 37 °C, the reaction was stopped with 1 mL of methanol for 10 min on ice and LO products formed and released in the supernatants were extracted and analyzed by HPLC. In detail, after centrifugation (800g, 10 min, room temperature) the samples were applied to C-18 solid-phase extraction columns (100 mg; IST, Mid Glamorgan, United Kingdom), preconditioned with 1 mL methanol and 1 mL water. The columns were washed with 1 mL water and 1 mL water/methanol (75/25, vol/vol) and 5-LO metabolites were eluted with 300 μL methanol. The extract was then diluted with 120 μL water, and 100 μL diluted extract were analyzed by HPLC using a C-18 Radial-Pak column (Waters) eluted with methanol/water/acetic acid 75/25/0.1 (vol/vol/vol) at a flow rate of 1.2 mL/min. Amounts of different metabolites were determined by peak area integration. 5-LO products analyzed include LTB4 and its two all-trans isomers, 5(S)-hydroxy-6-trans-8,11,14-cis-eicosatetraenoic acid (5-HETE), and 5(S)-hydroper-oxy-6-trans-8,11,14-cis-eicosatetraenoic acid (5-HpETE). 5-HETE and 5-HpETE coelute as one major peak, and the integration of this peak represented both eicosanoids.

[5] = molecular target: 5-lipoxygenase (5-LO); design: method as in PMID 31523435; settings: read-out: IC50 in isolated human neutrophils; cited from earlier work
[6] = molecular target: 5-lipoxygenase (5-LO); design: method as in PMID 31523435; settings: read-out: IC50 in whole blood; cited from earlier work
[7] = system: 5-LO; design: method as in PMID 23871907; settings: cited from earlier work
[8] = system: mPGES-1; design: method as in PMID 23871907; settings: cited from earlier work
[9] = […] A23187 plus 20 μM AA, 10 min, read-out: Cell-based A23187 + AA (IC50 of 5-LO product formation)

Structure (SMILES)	IC50 [1] [nM]	effect on 12-LO activity [1]	cytotoxicity on PMNL (LDH levels in the supernatants) [2]	IC50 [3] [nM]	5-LO inhibition in the cell free assay [3]	IC50 ([4]; […] A23187, 10 min, read-out: Cell-based A23187 (IC50 of 5-LO product formation)) [nM]	IC50 [4, 9] [nM]	IC50 [5] [nM]	IC50 [6] [nM]	IC50 [7] [nM]	IC50 [8] [nM]
CCCC/C=C\CCCCCCCCCc1cccc(OC(C)=O)c1OC(C)=O [AI, (Z)-1,2-diacetoxy-3-(pentadec-10′-enyl)-benzene]	> 10000	no significant effect	comparable to those of untreated controls	> 10000	No significant 5-LO inhibition	> 10000	1500 ± 1400	–	–	–	–
CCCCCCCCCCCCCCCc1cccc(OC(C)=O)c1OC(C)=O [AS, 1,2-diacetoxy-3-pentadecylbenzene]	> 10000	no significant effect	comparable to those of untreated controls	> 10000	No significant 5-LO inhibition	–	> 10000	–	–	–	–
O=C(/C=C/c1ccc(O)c(O)c1)OCCc1ccccc1 [CAPE, Caffeic acid phenethyl ester]	–	–	–	–	–	–	–	500	1800	–	–
CCCCCCCCCCCC1=C(O)C(=O)C=C(O)C1=O [embelin]	–	–	–	–	–	–	–	–	–	60	200
